Reference: patent publication US7527938B2, “Methods for diagnosis and treatment of chronic immune diseases” (R.E.D. Laboratories N.V./S.A., priority 2001, dated 2009)
Where a SMILES comes first, the peptide text is derived from it. The star is where a group is joined. Cbz = O=C(OCc1ccccc1)*

Tested on: Stat-1-specific proteases in PBMC extracts
Assay: Effect of protease inhibitors on Stat-1 protein degradation in mixed PBMC extracts (Western blot)
Type: biochemical, human
Settings: healthy control PBMC extract mixed with CFS patient PBMC extract (RNase L ratio=3.0), 37 C, 15 minutes; inhibitor 50 micromolar final concentration; anti-Stat-1 Western blot (FIG. 4)
Procedure: One of the two extracts used was from a healthy control (i.e., RNase L ratio<0.2; no protease present, detectable levels of Stat-1 protein). The other extract was from a patient with CFS (i.e., RNase L ratio>2.0; protease(s) present, no detectable level of Stat-1 protein).
Sixty (60) micrograms of PBMC extract from the healthy control was mixed with 60 micrograms of PBMC extract from a CFS patient and incubated at 37 C for 15 minutes in the presence of a) buffer only, b) DMSO (solvent for the protease inhibitors), c) Calpastatine, 50 micromolar final concentration, d) Calpain Inhibitor Type I, 200 micromolar final concentration, e) Calpain Inhibitor Type II, 200 micromolar final concentration, f) Caspase 3 Inhibitor Type II, 5 micromolar final concentration, or g) Proteasome Inhibitor (MG 132), 50 micromolar final concentration. All protease inhibitors above, as well as DMSO, were from Sigma Chemical Company.
After the 15 minute incubation, 2×SDS-PAGE gel sample dye was added and the sample heated to 95 C for five minutes to denature the proteins. The denatured samples were then subjected to standard SDS-PAGE using a 4 percent stacking gel and 10 percent separating gel. Transfer to PVDF membrane, Western blot with anti-Stat-1 antibody, and color development were performed exactly as described above.

CC(C)C[C@@H](C=O)NC(=O)[C@H](CC(C)C)NC(=O)[C@H](CC(C)C)NC(=O)OCc1ccccc1 [MG 132] (Cbz-Leu-Leu-Leu-aldehyde)
degradation of Stat-1 protein: inhibited
